The molecules below were run against T1, hematopoietic prostaglandin D synthase (H-PGDS) (Homo sapiens, UniProt O60760) (assay: H-PGDS RapidFire High Throughput Mass Spectrometry Assay). Conditions: conversion of PGH2 to PGD2 by human H-PGDS, 10 nM enzyme.
T1 construct: Full length human H-PGDS cDNA (Invitrogen Ultimate ORF IOH13026) was amplified by PCR; 6-His (N); TEV protease cleavage site (N); made in house; host or cells: E. coli BL21 (DE3*), vector pET22b+
T1 sequence (O60760 whole entry): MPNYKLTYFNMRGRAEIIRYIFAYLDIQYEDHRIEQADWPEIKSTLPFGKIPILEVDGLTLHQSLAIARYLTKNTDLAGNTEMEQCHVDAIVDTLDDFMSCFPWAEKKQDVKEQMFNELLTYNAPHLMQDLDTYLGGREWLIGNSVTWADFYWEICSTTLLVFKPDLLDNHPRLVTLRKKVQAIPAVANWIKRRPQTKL
Format: biochemical
Protocol: The H-PGDS RapidFire™ mass spectrometric assay monitors conversion of prostaglandin H2 (PGH2) to prostaglandin D2 (PGD2) by hematopoietic prostaglandin D synthase (H-PGDS). In the assay format described here, the substrate (PGH2) is formed in situ by the action of cyclooxygenase-2 on arachidonic acid. This first step is set up to be fast, and generates a burst of PGH2 at ˜10 μM. The PGH2 is then further converted to PGD2 by the H-PGDS enzyme. […] Plates are then read on the RapidFire™ high throughput solid phase extraction system (Agilent) which incorporates a solid phase extraction step coupled to a triple quadrupole mass spectrometer (AB SCIEX). Relative levels of PGD2 and PGF2α, which acts as a surrogate for substrate, are measured and a percent conversion calculated. Inhibitors are characterized as compounds which lower the conversion of PGH2 to PGD2.
Full length human H-PGDS cDNA (Invitrogen Ultimate ORF IOH13026) was amplified by PCR with the addition of a 5′ 6-His tag and TEV protease cleavage site. The PCR product was digested with NdeI and XhoI and ligated into pET22b+ (Merck Novagen®). Expression was carried out in E. coli strain BL21 (DE3*) using auto-induction Overnight Express™ Instant TB medium (Merck Novagen®) supplemented with 1% glycerol. The culture was first grown at 37° C. and the temperature was reduced to 25° C. when OD600 reached 2.0. Cells were harvested by centrifugation after a further 18 hours. 10 g of E. coli cell pellet was suspended to a total volume of 80 mL in lysis buffer (20 mM Tris-Cl pH 7.5, 300 mM NaCl, 20 mM imidazole, 5 mM β-mercaptoethanol, 10% glycerol). 1 mg/mL protease inhibitors (Protease Inhibitor Cocktail Set III, Merck Calbiochem®) and 1 mg/mL lysozyme were added to the cell suspension. The suspension was then sonicated for 5 min (Ultrasonic Processor VCX 750, Cole-Parmer Instrument Co.) with a micro probe (50% amplitude, 10 sec on/off) and then centrifuged at 100,000 g for 90 minutes (at 4° C.). The supernatant was loaded onto a Ni-NTA HiTrap column (5 mL, GE Healthcare, pre-equilibrated in lysis buffer). The column was washed with 10 column volumes of lysis buffer and eluted with lysis buffer containing 500 mM imidazole. The pooled protein peak fractions were concentrated using a 10 kDa centrifugal filter at 3500 g and 4° C. (Amicon Ultra-15 centrifugal filter unit with Ultracel-10 membrane from Millipore). Further purification of the concentrated protein was carried out using gel filtration chromatography on a HiLoad 26/600 Superdex75 preparative grade column (GE Healthcare Life Sciences) using 50 mM Tris pH 7.5, 50 mM NaCl, 1 mM dithiothreitol, 1 mM MgCl2. Fractions containing the protein were pooled, concentrated as described above, and stored at −80° C.
The full length human COX-2 gene (accession number L15326) was amplified by PCR to generate an EcoRI-Hindi 11 fragment containing an in-frame FLAG tag. This was subcloned into pFastBac 1 (Invitrogen). The COX-2 FLAG plasmid was recombined into the baculovirus genome according to the BAC-to-BAC protocol described by Invitrogen. Transfection into Spodoptera frugiperda (Sf9) insect cells was performed using Cellfectin (Invitrogen), according to the manufacturer's protocol. Super Sf9 cells were cultured in EX420 media (SAFC Biosciences) to a density of approximately 1.5×10^6 cells/mL within a wave bioreactor. Recombinant virus was added at a Multiplicity of Infection (MOI) of 5 and the culture was allowed to continue for 3 days. Cells were harvested using a continuous feed centrifuge run at 2500 g at a rate of approximately 2 L/min with cooling. The resultant cell slurry was re-centrifuged in pots (2500 g, 20 min, 4° C.) and the cell paste was stored at −80° C. 342 g of cell paste was re-suspended to a final volume of 1600 mL in a buffer of 20 mM Tris-Cl pH 7.4, 150 mM NaCl, 0.1 mM EDTA, 1.3% w/v n-octyl-β-D-glucopyranoside containing 20 Complete EDTA-free Protease Inhibitor Cocktail tablets (Roche Applied Science). […]
With “2-Cyclopropyl-N-((3R,6S)-6-(2-hydroxypropan-2-yl)tetrahydro-2H-pyran-3-yl)thiazolo[4,5-b]pyridine-6-carboxamide and 2-Cyclopropyl-N-((3S,6R)-6-(2-hydroxypropan-2-yl)tetrahydro-2H-pyran-3-yl)thiazolo[4,5-b]pyridine-6-carboxamide [Example 24]” the “Potency Range (mean pIC50)” value was “** (** = pIC50 6.0-7.0)”.

Same assay, conditions: conversion of PGH2 to PGD2 by human H-PGDS, 10 nM enzyme; mean pIC50; read-out: Potency Range (mean pIC50) (converted)
In the case of `CS(=O)(=O)CC(O)[C@H]1CC[C@H](NC(=O)c2cnc3nc(C4CC4)sc3c2)CC1` (mixture of isomers) [Example 28, Racemic 2-cyclopropyl-N-(trans-4-(1-hydroxy-2-(methylsulfonyl)ethyl)cyclohexyl)thiazolo[4,5-b]pyridine-6-carboxamide], the IC50 is reported as 100 to 1000 nM.
With `O=C(N[C@H]1CC[C@H](C(O)C(F)(F)F)CC1)c1cnc2nc(C3CC3)sc2c1` (mixture of isomers) [Example 32, Racemic 2-Cyclopropyl-N-(trans-4-(2,2,2-trifluoro-1-hydroxyethyl)cyclohexyl)thiazolo[4,5-b]pyridine-6-carboxamide] the IC50 was 10 to 79.4 nM.
Work on `CC(C)(O)C1CC2(CC(NC(=O)c3cnc4nc(C5CC5)sc4c3)C2)C1` (racemic) [Example 15, (Racemic)-2-cyclopropyl-N-(6-(2-hydroxypropan-2-yl)spiro[3.3]heptan-2-yl)thiazolo[4,5-b]pyridine-6-carboxamide] yielded an IC50 of 10 to 79.4 nM.
`O=C(NC1C[C@H](O)C[C@@H](O)C1)c1cnc2nc(C3CC3)sc2c1` (mixture of isomers) [Example 41, Racemic 2-cyclopropyl-N-((3S,5S)-3,5-dihydroxycyclohexyl)thiazolo[4,5-b]pyridine-6-carboxamide] gave an IC50 of 100 to 1000 nM.
Work on `CC(N[C@H]1CC[C@H](NC(=O)c2cnc3nc(C4CC4)sc3c2)CC1)C(F)F` (relative stereo) [Example 23, 2-Cyclopropyl-N-(trans-4-((1,1-difluoropropan-2-yl)amino)cyclohexyl)thiazolo[4,5-b]pyridine-6-carboxamide] yielded an IC50 of 100 to 1000 nM.
Molecule `O=C(N[C@H]1CC[C@H](C(O)C2CC2)CC1)c1cnc2nc(C3CC3)sc2c1` (relative stereo) [Example 26, 2-Cyclopropyl-N-(trans-4-(cyclopropyl(hydroxy)methyl)cyclohexyl)thiazolo[4,5-b]pyridine-6-carboxamide] has an IC50 of 10 to 79.4 nM.
In the case of `CC(C)(O)[C@H]1CC2(C[C@H](NC(=O)c3cnc4nc(C5CC5)sc4c3)C2)C1` (single isomer, unassigned) [Example 42], the IC50 is reported as 10 to 79.4 nM.
In the case of `CC(C)(O)[C@H]1CC[C@H](NC(=O)c2cnc3cc(Br)sc3c2)CC1` [Example 1], the IC50 is reported as 100 to 1000 nM.
With `CC(C)(O)[C@H]1CC[C@H](NC(=O)c2cnc3cc(C4CC4)sc3c2)CC1` [Example 2] the IC50 was 10 to 79.4 nM.
`C[C@]1(O)C[C@@H](NC(=O)c2cnc3cc(Br)sc3c2)C1` [Example 3] showed an IC50 of 1260 to 10000 nM.
For `C[C@]1(O)C[C@@H](NC(=O)c2cnc3cc(C4CC4)sc3c2)C1` [Example 4], the IC50 was 1260 to 10000 nM.
`CC(C)Nc1nc2ncc(C(=O)N[C@H]3CC[C@H](C(C)(C)O)CC3)cc2s1` [Example 5] was tested, and the IC50 was 100 to 1000 nM.
Molecule `CC(C)N(C)c1nc2ncc(C(=O)N[C@H]3CC[C@H](C(C)(C)O)CC3)cc2s1` [Example 6] has an IC50 of 10 to 79.4 nM.
With `CNc1nc2ncc(C(=O)N[C@H]3CC[C@H](C(C)(C)O)CC3)cc2s1` [Example 7] the IC50 was 100 to 1000 nM.
Molecule `CN(C)c1nc2ncc(C(=O)N[C@H]3CC[C@H](C(C)(C)O)CC3)cc2s1` [Example 9] has an IC50 of 10 to 79.4 nM.
`CC(C)(O)C12CC(NC(=O)c3cnc4cc(Br)sc4c3)(C1)C2` [Example 11, 2-Bromo-N-(3-(2-hydroxypropan-2-yl)bicyclo[1.1.1]pentan-1-yl)thieno[3,2-b]pyridine-6-carboxamide] was tested, and the IC50 was 100 to 1000 nM.
`CC(C)(O)C12CC(NC(=O)c3cnc4cc(C5CC5)sc4c3)(C1)C2` [Example 12, 2-Cyclopropyl-N-(3-(2-hydroxypropan-2-yl)bicyclo[1.1.1]pentan-1-yl)thieno[3,2-b]pyridine-6-carboxamide] showed an IC50 of 10 to 79.4 nM.
`CC(C)(O)C12CC(NC(=O)c3cnc4nc(C5CC5)sc4c3)(C1)C2` [Example 13, 2-Cyclopropyl-N-(3-(2-hydroxypropan-2-yl)bicyclo[1.1.1]pentan-1-yl)thiazolo[4,5-b]pyridine-6-carboxamide] was tested, and the IC50 was 100 to 1000 nM.
`CC(C)(O)[C@H]1CC[C@H](NC(=O)c2cnc3nc(C4CCC4)sc3c2)CC1` [Example 14, 2-Cyclobutyl-N-((trans)-4-(2-hydroxypropan-2-yl)cyclohexyl)thiazolo[4,5-b]pyridine-6-carboxamide] was tested, and the IC50 was 10 to 79.4 nM.
In the case of `O=C(N[C@H]1CC[C@H](O)CC1)c1cnc2nc(C3CC3)sc2c1` [Example 16, 2-Cyclopropyl-N-((trans)-4-hydroxycyclohexyl)thiazolo[4,5-b]pyridine-6-carboxamide], the IC50 is reported as 100 to 1000 nM.
Work on `C[C@]1(O)CC[C@H](NC(=O)c2cnc3nc(C4CC4)sc3c2)CC1` [Example 17, 2-Cyclopropyl-N-((trans)-4-hydroxy-4-methylcyclohexyl)thiazolo[4,5-b]pyridine-6-carboxamide] yielded an IC50 of 1260 to 10000 nM.
Molecule `O=C(N[C@H]1CC[C@H](OCCO)CC1)c1cnc2nc(C3CC3)sc2c1` [Example 18, 2-Cyclopropyl-N-((trans)-4-(2-hydroxyethoxy)cyclohexyl)thiazolo[4,5-b]pyridine-6-carboxamide] has an IC50 of 100 to 1000 nM.
In the case of `O=C(N[C@H]1CCNC1=O)c1cnc2nc(C3CC3)sc2c1` [Example 19, (S)-2-Cyclopropyl-N-(2-oxopyrrolidin-3-yl)thiazolo[4,5-b]pyridine-6-carboxamide], the IC50 is reported as 100 to 1000 nM.
Molecule `O=C(N[C@H]1CC[C@H](CO)CC1)c1cnc2nc(C3CC3)sc2c1` [Example 20, 2-Cyclopropyl-N-((trans)-4-(hydroxymethyl)cyclohexyl)thiazolo[4,5-b]pyridine-6-carboxamide] has an IC50 of 100 to 1000 nM.
For `O=C(N[C@H]1CC[C@H](N2CC(F)(F)C2)CC1)c1cnc2nc(C3CC3)sc2c1` [Example 21, 2-Cyclopropyl-N-((trans)-4-(3,3-difluoroazetidin-1-yl)cyclohexyl)thiazolo[4,5-b]pyridine-6-carboxamide], the IC50 was 100 to 1000 nM.
Molecule `CC(C)(O)[C@H]1C[C@H](NC(=O)c2cnc3nc(C4CC4)sc3c2)C1` [Example 22, 2-Cyclopropyl-N-((trans)-3-(2-hydroxypropan-2-yl)cyclobutyl)thiazolo[4,5-b]pyridine-6-carboxamide] has an IC50 of 100 to 1000 nM.
Molecule `CC(C)(F)c1nc2ncc(C(=O)N[C@H]3CC[C@H](C(C)(C)O)CC3)cc2s1` [Example 25, 2-(2-Fluoropropan-2-yl)-N-(trans-4-(2-hydroxypropan-2-yl)cyclohexyl)thiazolo[4,5-b]pyridine-6-carboxamide] has an IC50 of 100 to 1000 nM.
`CC(C)(C)c1nc2ncc(C(=O)N[C@H]3CC[C@H](C(C)(C)O)CC3)cc2s1` [Example 27, 2-(tert-Butyl)-N-(trans-4-(2-hydroxypropan-2-yl)cyclohexyl)thiazolo[4,5-b]pyridine-6-carboxamide] gave an IC50 of 100 to 1000 nM.
With `CC(C)(O)[C@H]1CC[C@H](NC(=O)c2cnc3nc(N4CCC4)sc3c2)CC1` [Example 29, 2-(Azetidin-1-yl)-N-(trans-4-(2-hydroxypropan-2-yl)cyclohexyl)thiazolo[4,5-b]pyridine-6-carboxamide] the IC50 was 100 to 1000 nM.

Reference: patent US20210139507A1, “FUSED PYRIDINES WHICH ACT AS INHIBITORS OF H PGDS” (GlaxoSmithKline Intellectual Property Development Limited, priority 2017, published 2021)
